Assay results published in patent publication US8492374B2, “Azaazulene compounds” (Industrial Technology Research Institute, priority 2009, dated 2013).

Experiments:
[1] = biological target: T1, FLT-3 kinase (Homo sapiens, UniProt P36888); test: FLT-3 kinase DELFIA assay (HTScan FLT-3 Kinase Assay Kit); assay type: biochemical; details: 20 uM ATP; for inhibition at 0.1 µM: 0.1 uM compound; for inhibition at 1 µM: 1 uM compound
T1 construct: human FLT-3 (Arg571-Ser993); GST (N); purchased Cell Signaling Technology HTScan FLT-3 Kinase Assay Kit; host or cells: baculovirus expression system
T1 sequence (P36888 571-993): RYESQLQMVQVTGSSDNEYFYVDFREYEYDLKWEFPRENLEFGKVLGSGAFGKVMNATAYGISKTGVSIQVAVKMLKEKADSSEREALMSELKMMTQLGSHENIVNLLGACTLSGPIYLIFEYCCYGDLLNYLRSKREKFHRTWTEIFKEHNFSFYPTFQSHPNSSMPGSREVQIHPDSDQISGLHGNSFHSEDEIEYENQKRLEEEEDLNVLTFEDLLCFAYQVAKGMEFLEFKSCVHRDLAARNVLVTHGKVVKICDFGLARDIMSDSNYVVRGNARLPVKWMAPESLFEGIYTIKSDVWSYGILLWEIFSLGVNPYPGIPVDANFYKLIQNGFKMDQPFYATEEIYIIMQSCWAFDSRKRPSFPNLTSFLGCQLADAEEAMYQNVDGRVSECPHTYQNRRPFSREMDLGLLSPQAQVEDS
Protocol: (§1) Azaazulene Compounds of this invention were treated for their efficacy in inhibiting activities of FLT-3, c-KIT and KDR kinases by biochemical DELFIA (Dissociation Enhanced Lanthanide FIA) assays according to the procedure described below. The assays were conducted by, Division of Cell Engineering, Biomedical Engineering Research Laboratories, Industrial Technology Research Institute, Bldg. 53, 195, sec. 4, Chung Hsing Rd. Chutung, Hsinchu, Taiwan 310, R.O.C.
The FLT-3 assay was conducted following the protocol described in Protocol for HTScang FLT-3 Kinase Assay Kit (Cell Signaling Technology®).

[2] = biological target: T2, c-KIT kinase (Homo sapiens, UniProt P10721); test: c-KIT kinase DELFIA assay (HTScan c-KIT Kinase Assay Kit); assay type: biochemical; details: 20 uM ATP; for inhibition at 0.1 µM: 0.1 uM compound; for inhibition at 1 µM: 1 uM compound
T2 construct: human c-KIT (Thr544-Val976); GST (N); purchased Cell Signaling Technology HTScan c-KIT Kinase Assay Kit; host or cells: baculovirus expression system
T2 sequence (P10721 544-976): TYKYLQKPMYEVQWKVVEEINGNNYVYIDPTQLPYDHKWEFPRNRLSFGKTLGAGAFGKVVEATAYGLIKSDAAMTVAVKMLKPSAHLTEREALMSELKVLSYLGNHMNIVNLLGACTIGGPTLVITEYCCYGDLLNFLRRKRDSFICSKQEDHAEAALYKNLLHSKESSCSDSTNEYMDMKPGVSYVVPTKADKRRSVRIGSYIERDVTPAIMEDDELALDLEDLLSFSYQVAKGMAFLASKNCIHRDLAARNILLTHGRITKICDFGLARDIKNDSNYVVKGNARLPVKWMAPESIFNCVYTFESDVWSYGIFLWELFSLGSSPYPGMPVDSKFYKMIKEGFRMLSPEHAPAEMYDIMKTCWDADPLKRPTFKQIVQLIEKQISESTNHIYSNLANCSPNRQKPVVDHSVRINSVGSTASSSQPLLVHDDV
Protocol: as §1
The c-KIT assay was conducted following the protocol described in Protocol for HTScan® c-KIT Kinase Assay Kit (Cell Signaling Technology®).

[3] = system: MV4-11 (FLT3-ITD) cell line; test: In vitro cell activity assay (MTT cell viability, 72 hours); assay type: cell-based; details: Homo sapiens, 72 hours at 37° C., 10,000 cells per well, read-out: IC50 against MV4-11
Protocol: Human MV4-11 (FLT3-ITD) cell line was obtained from American Tissue Culture Collection (ATCC number: CRL-9591). The cell line was cultured with RPMI 1640 containing 10% fetal bovine serum, 1 mmol/L sodium pyruvate and 10 mmol/L HEPES (pH 7.4). The cell was grown and maintained in a humidified atmosphere at 37° C. and 5% carbon dioxide.
MV4-11 cell was plated in 96-well microtiter plates (10,000 cells per well) and serial dilutions of indicated compounds were added. At the end of the incubation period (72 hours at 37° C.), cell viability was determined by a tetrazolium dye, MTT (3-(4,5-dimethylthiazol-2-yl)-2,5-diphenyl tetrazolium bromide) (Promega, Madison, Wis.). The formazan crystals were dissolved by DMSO, and the absorbance at a wavelength of 600 nm was recorded using an ELISA plate reader. IC50 values were calculated using nonlinear regression and defined as the concentration needed for a 50% reduction in absorbance of treated versus untreated control cells.

[4] = biological target: T3, KDR kinase (Homo sapiens, UniProt P35968); test: KDR kinase DELFIA assay (HTScan VEGFR-2 Kinase Assay Kit); assay type: biochemical; details: 20 uM ATP; for inhibition at 0.1 µM: 0.1 uM compound, read-out: Kinases inhibitory activities against KDR kinase, 0.1 uM; for inhibition at 1 µM: 1 uM compound, read-out: Kinases inhibitory activities against KDR kinase, 1 uM
T3 construct: human VEGFR-2 (Val789-Val1356); GST (N); purchased Cell Signaling Technology HTScan VEGFR-2 Kinase Assay Kit; host or cells: baculovirus expression system
T3 sequence (P35968 789-1356): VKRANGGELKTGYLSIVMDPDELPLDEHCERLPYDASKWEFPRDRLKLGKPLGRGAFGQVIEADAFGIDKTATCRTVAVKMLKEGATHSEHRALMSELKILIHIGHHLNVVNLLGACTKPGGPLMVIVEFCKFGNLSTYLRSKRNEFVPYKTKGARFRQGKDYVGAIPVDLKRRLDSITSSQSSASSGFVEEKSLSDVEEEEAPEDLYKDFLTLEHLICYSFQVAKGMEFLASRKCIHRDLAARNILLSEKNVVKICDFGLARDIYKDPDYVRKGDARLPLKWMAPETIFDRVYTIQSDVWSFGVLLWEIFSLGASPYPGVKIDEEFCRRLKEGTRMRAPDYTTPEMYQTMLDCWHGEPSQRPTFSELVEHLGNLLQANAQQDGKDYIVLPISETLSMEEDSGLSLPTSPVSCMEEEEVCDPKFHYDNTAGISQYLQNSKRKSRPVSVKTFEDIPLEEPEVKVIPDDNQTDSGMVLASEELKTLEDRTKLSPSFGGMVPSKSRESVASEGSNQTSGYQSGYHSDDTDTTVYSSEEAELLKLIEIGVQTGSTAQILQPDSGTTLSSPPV
Protocol: as §1
The KDR assay was conducted following the protocol described in Protocol for HTScan™ VEGFR-2 Kinase Assay Kit (Cell Signaling Technology™).

| Structure (SMILES) | inhibition at 0.1 µM [1] [%] | inhibition at 1 µM [1] [%] | inhibition at 0.1 µM [2] [%] | inhibition at 1 µM [2] [%] | IC50 [3] [nM] | inhibition at 0.1 µM [4] [%] | inhibition at 1 µM [4] [%] |
| --- | --- | --- | --- | --- | --- | --- | --- |
| O=c1[nH]c2cccccc-2c1-c1nc2cccnc2[nH]1 [Compound B15] | 8.6 | 18.1 | 8.5 | 43.1 | 1000 to 5000 |  |  |
| O=C(O)c1ccc2[nH]c(-c3c4cccccc-4[nH]c3=O)nc2c1 [Compound B7] |  | 8.7 | 34.8 | 57.3 | > 5000 | 20.2 | 46.1 |
| O=c1[nH]c2cccccc-2c1-c1nc2cc(O)ccc2[nH]1 [Compound B8] | 9.8 | 68.5 | 42.2 | 75.5 | ~500 | 15.9 | 63.8 |
| O=C(Nc1ccc(Cl)c(C(F)(F)F)c1)Nc1ccc2[nH]c(-c3c4cccccc-4[nH]c3=O)nc2c1 [Compound B118] | 57.9 | 76.3 | 66.6 | 36.8 | 64.1 |  |  |
| O=c1[nH]c2cccccc-2c1-c1nc2cc(N3CCCN(CCCF)CC3)ccc2n1CCCF [Compound B83] | 11 | 21.2 |  | 19.7 | 227 |  |  |
| O=c1[nH]c2cccccc-2c1-c1nc2cc(C(F)(F)F)ccc2[nH]1 [Compound B4] | 13.7 | 37.1 | 5 | 37.6 | 1000 to 5000 | 14.4 | 17.8 |
| Cc1cc(N2CCCN(c3ccc4[nH]c(-c5c6cccccc-6[nH]c5=O)nc4c3)CC2)nc(N(C)C)n1 [Compound B97] | 8.8 | 44.6 | 40.1 | 87.2 | 100 to 500 |  |  |
| O=CN1CCCN(c2ccc3[nH]c(-c4c5cccccc-5[nH]c4=O)nc3c2)CC1 [Compound B88] | 20.6 | 62.4 | 47.2 | 89.2 | 144 |  |  |
| O=c1[nH]c2cccccc-2c1-c1nc2cc(N3CCCN(CCF)CC3)ccc2[nH]1 [Compound B80] | 23.1 | 71.4 | 56.7 | 82.9 | 796 |  |  |
| O=c1[nH]c2cccccc-2c1-c1nc2cc(N3CCCN(CCCF)CC3)ccc2[nH]1 [Compound B82] | 30.3 | 81.6 | 31 | 91.1 | 18.6 |  |  |
| CN(C)CCCN(C)c1ccc2[nH]c(-c3c4cccccc-4[nH]c3=O)nc2c1 [Compound B21] | 20.1 | 63 | 10.8 | 55.4 | 428 |  |  |
| C[N+]1([O-])CC[N+]([O-])(c2ccc3[nH]c(-c4c5cccccc-5[nH]c4=O)nc3c2)CC1 (centres unmarked) [Compound B70] | 11.1 | 27.5 | 40.5 | 86.6 | ~1000 |  |  |
| Nc1ncnc2[nH]c(-c3c4cccccc-4[nH]c3=O)nc12 [Compound B11] | 12.5 | 27.3 | 15.1 | 43.7 | 1000 to 5000 |  |  |
| O=c1[nH]c2cccccc-2c1-c1nc2cc(N3CCCNCC3)ccc2n1CCCF [Compound B81] | 9.9 | 21 | 28.9 | 17.2 | 208 |  |  |
| O=c1[nH]c2cccccc-2c1-c1nc2cc(N3CCCN(c4ccccn4)CC3)ccc2[nH]1 [Compound B94] | 17 | 52.3 | 12.3 | 79.1 | 852 |  |  |
| O=c1[nH]c2cccccc-2c1-c1nc2cc(N3CCCN(Cc4cccnc4)CC3)ccc2[nH]1 [Compound B87] | 39.8 | 91.6 | 49.6 | 96.2 | 88.6 |  |  |

| Structure (SMILES) | inhibition at 0.1 µM [1] [%] | inhibition at 1 µM [1] [%] | inhibition at 0.1 µM [2] [%] | inhibition at 1 µM [2] [%] | IC50 [3] [nM] | inhibition at 0.1 µM [4] [%] | inhibition at 1 µM [4] [%] |
| --- | --- | --- | --- | --- | --- | --- | --- |
| O=c1[nH]c2cccccc-2c1-c1cn2cc(Br)ccc2n1 [Compound B17] | 4.9 | 23.4 |  |  | 1000 to 5000 |  |  |
| Cc1cc(N2CCN(c3ccc4[nH]c(-c5c6cccccc-6[nH]c5=O)nc4c3)CC2)nc(N(C)C)n1 [Compound B67] | 43.3 | 95.3 |  |  | 77.8 |  |  |
| O=c1[nH]c2cccccc-2c1-c1nc2ccccc2[nH]1 [Compound A1, 3-(benzimidazol-2-yl)-1-azaazulen-2-one, reference compound] | 11.5 | 59.4 | 34.1 | 64.5 | ~1000 |  |  |
| NC(=O)C1CCN(c2ccc3[nH]c(-c4c5cccccc-5[nH]c4=O)nc3c2)CC1 [Compound B108] | 16 | 86.5 |  |  | 89.1 |  |  |
| COc1cccc(NC(=O)Nc2ccc3[nH]c(-c4c5cccccc-5[nH]c4=O)nc3c2)c1 [Compound B138] | 35.6 | 58.1 |  |  | 718 |  |  |
| O=c1[nH]c2cccccc-2c1-c1nc2cc(N3CCCN(c4ncccc4[N+](=O)[O-])CC3)ccc2[nH]1 [Compound B95] | 14.4 | 37.7 | 48.3 | 82.6 | 771 |  |  |
| O=c1[nH]c2cccccc-2c1-c1nc2cc(N3CCN(c4ncccc4[N+](=O)[O-])CC3)ccc2[nH]1 [Compound B65] | 16.3 | 60.5 |  |  | 278 |  |  |
| O=C(Nc1ccc2[nH]c(-c3c4cccccc-4[nH]c3=O)nc2c1)Nc1cc(C(F)(F)F)ccc1F [Compound B119] | 32 | 44.6 |  |  | 100 to 500 |  |  |
| O=c1[nH]c2cccccc-2c1-c1nc2cc(N3CCC(N4CCCCC4)CC3)ccc2[nH]1 [Compound B102] | 22.8 | 67.8 |  |  | 115 |  |  |
| CN(C)S(=O)(=O)N1CCCN(c2ccc3[nH]c(-c4c5cccccc-5[nH]c4=O)nc3c2)CC1 [Compound B91] | 14.3 | 42.5 |  |  | 876 |  |  |
| O=c1[nH]c2cccccc-2c1-c1nc2cc(N3CCCNCC3)ccc2[nH]1 [Compound B76] | 50 | 92.9 |  |  | 25.6 |  |  |
| O=c1[nH]c2cccccc-2c1-c1nc2cc(N3CCN(Cc4ccc5ccccc5c4)CC3)ccc2[nH]1 [Compound B43] | 33.5 | 67.2 |  |  | 1000 to 5000 |  |  |
| O=c1[nH]c2cccccc-2c1-c1nc2cc(N3CCC(N4CCOCC4)CC3)ccc2[nH]1 [Compound B103] | 36.5 | 87.4 |  |  | 42 |  |  |
| O=c1[nH]c2cccccc-2c1-c1nc2cc(N3CCN(CCO)CC3)ccc2[nH]1 [Compound B36] | 24.8 | 64 |  |  | 151 |  |  |
| COc1ccc2nc(-c3c4cccccc-4[nH]c3=O)cn2c1 [Compound B14] |  | 9.6 | 20.1 | 39.4 | 1000 to 5000 |  |  |
